According to patent publication US20210246128A1, “BICYCLE TOPOISOMERASE I INHIBITING COMPOUNDS, PROCESS FOR PREPARATION AND USE THEREOF” (Council of Scientific & Industrial Research, priority 2018, published 2021):
In brackets after ≈: the same amount, converted by molar mass. Read-outs that look alike come from different tables or passages of the source.

Legend:
[1] = Solubility assay (pH 7.4 pION buffer, UV); assay type: physicochemical; conditions: pH 7.4 pION buffer, aqueous buffer, kinetic from dmso stock; pH 7.4 buffer, 18 hours incubation; read-out: Avg. Solubility (μg/mL) at pH 7.4
Procedure: 5 μL of 20 mM DMSO stock from the stock plate was added to the reaction deep well plate containing 495 μL of pH 7.4 pION buffer (including DMSO control) respectively and the samples were mixed and incubated for 18 hours. The plate was sealed well during the incubation process. The DMSO content in the sample was <1.0%. The concentration in deep well plates was 200 μM. 4 μL of 20 mM stock (including DMSO control) was added to 996 μL of acetonitrile to prepare the working stock plate. 75 μL of working stock was added to 75 μL of blank buffer and read on spectrophotometer as reference plate at 240 nm. At the end of the incubation period, 100 μL of sample from storage plate was vacuum filtered using a filter plate. This step wets the filters and the filtrate was discarded. Another 200 μL of the sample from deep well plate was vacuum filtered in to a new filter collection plate. 75 μL of the filtrate from the filter collection plate was transferred to a UV sample plate. 75 μL of acetonitrile was added to this UV plate. The solution was mixed and the spectrum was read using the UV spectrophotometer at 240 nm. Plates were read on spectramax using SoftMax Pro software version 5.3.

Plasma stability assay = assay type: in vitro ADME; conditions: pH 7.4, 37° C., 1 μM
Procedure: The stock solution of 10 mM of test compound in DMSO was prepared and stored at 4° C. 25 μM stock of test compound was prepared in acetonitrile: water by diluting from 10 mM stock (i.e. 2.5 μL of 10 mM stock solution was added to 997.5 μL of acetonitrile: water (50:50). The frozen plasma was thawed at room temperature and centrifuged at 1400×RCF (relative centrifugal force) 4° C., for 15 minutes. Approximately 90% of the clear supernatant fraction was transferred to a separate tube and was used for the assay.
For 0 min samples, plasma was heat inactivated at 56° C. for 45 min. To 72 μL of heat inactivated plasma, 3 μL of 25 μM test compound was added. A 25 μL aliquot of the mixture was taken and crashed with 200 μL of acetonitrile containing internal standard and further processed along with other time points. For other time point samples, final working stock of 1 μM was prepared by diluting in plasma (i.e. 8 μL of 25 μM acetonitrile:water stock was added to 192 μL of plasma). 200 μL of plasma containing the test compound was incubated for 2 hrs at 37° C. in shaker water bath with gentle shaking. 25 μL aliquot of sample at 0, 15, 30, 60 and 120 min was precipitated immediately with 200 μL of acetonitrile containing internal standard and centrifuged at 4000×RCF, 4° C. for 20 minutes. 150 μL of supernatant was diluted with 150 μL of water and analyzed on LC-MS/MS.

[2] = target: T1, endogenous TopI from the whole cell extracts of human breast adenocarcinoma (MCF7) cell (Homo sapiens, UniProt P11387); test: Plasmid DNA relaxation assay with MCF7 cell lysates (ex vivo); assay type: biochemical; conditions: MCF7 cell lysates as source of TopI
T1 construct: TopI enzyme in the extract is conserved in its native structure among a plethora of other cellular proteins; endogenous in cells; host or cells: MCF7 whole cell extract
T1 sequence (P11387 1-765): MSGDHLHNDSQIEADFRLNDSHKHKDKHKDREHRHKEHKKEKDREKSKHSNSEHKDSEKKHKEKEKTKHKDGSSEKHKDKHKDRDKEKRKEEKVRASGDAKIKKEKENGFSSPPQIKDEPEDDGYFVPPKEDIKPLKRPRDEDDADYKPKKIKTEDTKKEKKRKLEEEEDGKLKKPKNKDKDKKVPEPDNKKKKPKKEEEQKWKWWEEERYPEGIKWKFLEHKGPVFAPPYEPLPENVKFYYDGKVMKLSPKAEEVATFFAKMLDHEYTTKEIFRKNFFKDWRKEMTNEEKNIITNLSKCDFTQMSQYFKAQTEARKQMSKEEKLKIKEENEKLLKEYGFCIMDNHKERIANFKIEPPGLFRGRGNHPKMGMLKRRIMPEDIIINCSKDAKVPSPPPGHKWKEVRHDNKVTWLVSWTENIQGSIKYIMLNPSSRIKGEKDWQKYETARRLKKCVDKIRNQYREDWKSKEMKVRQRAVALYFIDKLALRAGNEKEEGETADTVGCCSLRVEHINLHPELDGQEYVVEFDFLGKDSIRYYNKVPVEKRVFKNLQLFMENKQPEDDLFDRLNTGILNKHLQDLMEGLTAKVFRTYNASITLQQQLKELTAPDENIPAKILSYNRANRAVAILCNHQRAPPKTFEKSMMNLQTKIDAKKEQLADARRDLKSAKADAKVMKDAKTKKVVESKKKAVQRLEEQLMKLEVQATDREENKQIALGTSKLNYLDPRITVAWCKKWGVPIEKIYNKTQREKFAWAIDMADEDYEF
Procedure: (§1) Human ToPI Inhibition in Plasmid DNA Relaxation Assays with Recombinant TopI (In Vitro) or MCF7 Cell Lysates (Ex Vivo)
(§2) Relaxation of supercoiled pBSSK(^+) DNA with recombinant human TopI (HTopI) at a molar ratio of 3:1 at 37° C. for 30 minutes was performed
cellular extracts were utilized as a source of TopI (ex vivo) in plasmid DNA relaxation assays. TopI enzyme in the extract is conserved in its native structure among a plethora of other cellular proteins.

[3] = Caco-2 permeability (21 day culture of Caco-2 cell monolayer); assay type: in vitro ADME; conditions: human; for recovery at 120 min, 10 μM: Caco-2, pH 7.4, Caco-2; for Papp A→B at 120 min, 10 μM / Papp B→A at 120 min, 10 μM: pH 7.4, Caco-2, 10 μM; for Papp A→B at 120 min, 10 μM: read-out: Papp Apical to Basal; for Papp B→A at 120 min, 10 μM: read-out: Papp Basal to Apical
Procedure: 5 mL of 100 mM sodium pyruvate, 5 mL of 10× non-essential amino acids, 5 mL of penstrep were added to 100 mL of heat inactivated foetal bovine serum to 385 mL of DMEM aseptically and mixed thoroughly. One vial of Hank's balanced salt (Sigma-H1387) was dissolved in 900 mL of milli Q water; adjusted the pH to 7.4 and made up the volume to 1000 mL with the same. The solution was filter sterilized and stored at 4° C. Stock solution of test compound (10 mM) was prepared in DMSO. 10 mM stock was diluted with HBSS Buffer to a final concentration of 10 μM.
250 μL of DMEM was added to the basal compartment of 96 well multi-screen Caco-2 plate and seeded 12000 cells/well (0.16×10^6 cells/ml) in all the apical wells required and one well with only media as blank without cells, placed the Caco-2 plate in CO2 incubator at 37° C. for proliferation of cells.
On the day of assay, medium was removed and washed twice with HBSS Buffer and incubated with HBSS buffer for 30 min in an incubator and wells with TEER values >230 ohm·cm^2 were selected for the incubation. 75 μL of test compound was added to apical wells and 250 μL of HBSS buffer with 2% BSA was added to basal wells. 25 μL of basal samples was collected at 120 min and processed as stated below.
250 μL of test compound was added to basal wells and 75 μL of HBSS buffer with 2% BSA was added to apical wells. 25 μL of apical samples was collected at 120 min and processed as stated below.
Single point calibration curve in HBSS buffer with 2% BSA was used. Donor samples were diluted 1:1 with HBSS containing 2% BSA and receiver samples were diluted with 1.1 HBSS buffer and precipitated with 200 μL of acetonitrile containing internal standard and vortexed for 5 min @ 1000 rpm, centrifuged at 4000 rpm for 10 min. Finally 100 μL of supernatant was diluted with 200 μL of water and submitted for LC-MS/MS analysis.

[4] = Lipophilicity assay (octanol/buffer Log D); conditions: octanol / sodium phosphate buffer pH 7.4
Procedure: 1.56 g NaH2PO4.2H2O was dissolved in 0.5 L water in a 1 L beaker. After adjusting pH to 7.4 using NaOH solution, the volume was made up to 1 L. Equal volumes of sodium phosphate buffer (10 mM, pH 7.4) and n-octanol were added to a separation funnel and mixed thoroughly by shaking and inverting the funnel several times. The two layers were allowed to separate for 2 days and then dispensed in two separate glass bottles. 10 mM stock solution was prepared in 100% DMSO and stored at 4° C. 500 μL of organic phase (1-octanol) was added to each well of a 2 mL deep well plate, followed by 500 μL of buffer and 15 μL of test substance was added. The plate was vortexed for 1 hr on a plate shaker at 1200 rpm. After incubation, the samples were allowed to equilibrate for 20 min and then centrifuged at 4000 rpm for 30 min for complete phase separation and analysed by LC-UV.
Log D=Log(area of octanol/area of buffer)
Mean, SD and % CV for each set of triplicates were calculated

[5] = target: T2, recombinant human TopI (HTopI) (Homo sapiens, UniProt P11387); test: Gel based plasmid DNA relaxation assay with recombinant TopI (in vitro); assay type: biochemical; conditions: for IC50: plasmid DNA relaxation; for inhibition at 10 µM: read-out: In vitro inhibition at 10 μM
T2 sequence (P11387 1-765): T1 sequence (P11387 1-765)
Procedure: as §1, §2

[6] = recombinant human TopI, at 10 μM

CCCSc1ccc2nc(NC(=O)OC)[nH]c2c1 [Albendazole, reference compound]
solubility at 18 h [1]: 3.31 µg/mL (≈ 12.5 µM)

CC(C)[N+](C)(CCOC(=O)C1c2ccccc2Oc2ccccc21)C(C)C [Propantheline, reference compound]
Mean % remaining at 2 hrs in human Plasma (Plasma stability assay): 0.00%

Nc1ccc(-c2ccc3ncc(-c4nnco4)c(NCCCn4ccnc4)c3c2)cc1 [Compound 20, N-(3-(1H-imidazol-1-yl)propyl)-6-(4-aminophenyl)-3-(1,3,4-oxadiazol-2-yl)quinolin-4-amine]
IC50 [2]: 2250 nM
recovery at 120 min, 10 μM ([3]; read-out: A to B % Recovery): 72.7%
recovery at 120 min, 10 μM ([3]; read-out: B to A % Recovery): 91.7%
Papp A→B at 120 min, 10 μM [3]: 0.63 ×10⁻⁶ cm/s
Papp B→A at 120 min, 10 μM [3]: 44.2 ×10⁻⁶ cm/s
Log D @ pH 7.40 Mean [4]: 2.56
IC50 ([5]; recombinant human TopI): 24 nM
Mean % remaining at 2 hrs in human Plasma (Plasma stability assay): 91.32%

CC(C(=O)O)c1ccc(-c2ccccc2)c(F)c1 (stereo not drawn) [Flurbiprofen, reference compound]
solubility at 18 h [1]: 54 µg/mL (≈ 221 µM)

Brc1ccc2ncc(-c3nnco3)c(NCCCn3ccnc3)c2c1 [Compound 17, N-(3-(1H-imidazol-1-yl)propyl)-6-bromo-3-(1,3,4-oxadiazol-2-yl)quinolin-4-amine]
inhibition at 10 µM [5, 6]: 30%

Cc1ccc(-c2ccc3ncc(-c4nnco4)c(NCCCn4ccnc4)c3c2)cc1 [Compound 29, N-(3-(1H-imidazol-1-yl)propyl)-3-(1,3,4-oxadiazol-2-yl)-6-p-tolylquinolin-4-amine]
IC50 [2]: 3750 nM
IC50 ([5]; recombinant human TopI): 1060 nM

Topotecan [reference compound]
Mean % remaining at 2 hrs in human Plasma (Plasma stability assay): 11.5%

COCCc1ccc(OCC(O)CNC(C)C)cc1 (stereo not drawn) [Metoprolol, reference compound]
Log D @ pH 7.40 Mean [4]: −0.29

COc1ccc(-c2ccc3ncc(-c4nnc(C)o4)c(NCCN4CCOCC4)c3c2)cc1 [Compound 14, 6-(4-methoxyphenyl)-3-(5-methyl-1,3,4-oxadiazol-2-yl)-N-(2-morpholinoethyl)quinolin-4-amine]
inhibition at 10 µM [5, 6]: 50%

COc1ccc(-c2ccc3ncc(-c4nnco4)c(NCCCn4ccnc4)c3c2)cc1C [Compound 28, N-(3-(1H-imidazol-1-yl)propyl)-6-(4-methoxy-3-methylphenyl)-3-(1,3,4-oxadiazol-2-yl)quinolin-4-amine]
IC50 [2]: 3000 nM
IC50 ([5]; recombinant human TopI): 2360 nM

CNc1c(-c2nnco2)cnc2ccc(-c3ccc(OC)cc3)cc12 [Compound 77, 6-(4-methoxyphenyl)-N-methyl-3-(1,3,4-oxadiazol-2-yl)quinolin-4-amine]
inhibition at 10 µM [5, 6]: 20%

COc1ccc(-c2ccc3ncc(-c4nnc(C)o4)c(NCCCn4ccnc4)c3c2)cc1 [Compound 54, N-(3-(1H-imidazol-1-yl)propyl)-6-(4-methoxyphenyl)-3-(5-methyl-1,3,4-oxadiazol-2-yl)quinolin-4-amine]
inhibition at 10 µM [5, 6]: 55%

CC(C)NCC(O)COc1cccc2ccccc12 (stereo not drawn) [Propranolol, reference compound]
recovery at 120 min, 10 μM ([3]; read-out: A to B % Recovery): 68%
recovery at 120 min, 10 μM ([3]; read-out: B to A % Recovery): 72.7%
Papp A→B at 120 min, 10 μM [3]: 19.1 ×10⁻⁶ cm/s
Papp B→A at 120 min, 10 μM [3]: 13.3 ×10⁻⁶ cm/s

COc1ccc(-c2ccc3ncc(-c4nnco4)c(NCCCn4ccnc4)c3c2)c(OC)c1 [Compound 27, N-(3-(1H-imidazol-1-yl)propyl)-6-(2,4-dimethoxyphenyl)-3-(1,3,4-oxadiazol-2-yl)quinolin-4-amine]
inhibition at 10 µM [5, 6]: 45%

CCOC(=O)c1cnc2ccc(Br)cc2c1NCCCn1ccnc1 [Compound 15, ethyl 4-((3-(1H-imidazol-1-yl)propyl)amino)-6-bromoquinoline-3-carboxylate]
inhibition at 10 µM [5, 6]: 30%

CCOC(=O)c1cnc2ccc(-c3ccc(OC)cc3)cc2c1NCCCn1ccnc1 [Compound 78, ethyl 4-((3-(1H-imidazol-1-yl)propyl)amino)-6-(4-methoxyphenyl)quinoline-3-carboxylate]
inhibition at 10 µM [5, 6]: 35%

COc1ccc(-c2ccc3ncc(-c4ccc(N)nc4)c(NCCCn4ccnc4)c3c2)cc1 [Compound 73, N-(3-(1H-imidazol-1-yl)propyl)-3-(6-aminopyridin-3-yl)-6-(4-methoxyphenyl)quinolin-4-amine]
IC50 ([5]; recombinant human TopI): 5240 nM

COc1ccc(-c2ccc3ncc(-c4nnco4)c(NCCCN4CCOCC4)c3c2)cc1 [Compound 43, 6-(4-methoxyphenyl)-N-(3-morpholinopropyl)-3-(1,3,4-oxadiazol-2-yl)quinolin-4-amine]
recovery at 120 min, 10 μM ([3]; read-out: A to B % Recovery): 42.6%
recovery at 120 min, 10 μM ([3]; read-out: B to A % Recovery): 58.5%
Papp A→B at 120 min, 10 μM [3]: 10.9 ×10⁻⁶ cm/s
Papp B→A at 120 min, 10 μM [3]: 11 ×10⁻⁶ cm/s
Log D @ pH 7.40 Mean [4]: 3.26
Mean % remaining at 2 hrs in human Plasma (Plasma stability assay): 83.38%

COc1ccc(-c2ccc3ncc(-c4nnc(N)o4)c(NCCCn4ccnc4)c3c2)cc1 [Compound 52, 5-(4-(3-(1H-imidazol-1-yl)propylamino)-6-(4-methoxyphenyl)quinolin-3-yl)-1,3,4-oxadiazol-2-amine]
inhibition at 10 µM [5]: 45%
